Source: publication PMC6678253, “The 1,3,5-Triazine Derivatives as Innovative Chemical Family of 5-HT6 Serotonin Receptor Agents with Therapeutic Perspectives for Cognitive Impairment” (International Journal of Molecular Sciences, 2019)
Like-named read-outs stand apart in the source and are kept apart here.

What was measured:
5-HT6 = target: 5-HT6; set-up: method as in PMID 28441580, PMID 30530073, PMID 31229876; details: human receptor stably expressed in HEK-293; determined previously; read-out: Ki 5-HT6 [3H]-LSD; cited from earlier work
[1] = system: human embryonic kidney HEK-293 cell line; assay: Cytotoxicity, MTS assay in HEK-293
Experimental: (§2) The cells’ viability was determined by CellTiter 96® AQueous Non-Radioactive Cell Proliferation Assay (MTS), which was purchased from Promega (Madison, WI, USA). The absorbance was measured using a microplate reader EnSpire (PerkinElmer, Waltham, MA USA) at 490 nm. All compounds were tested in quadruplicate. For ATP-level measurement the cells were growth in similar way as in cytotoxicity assays. The CellTiter-Glo® Luminescent Cell Viability Assay and protocol was provided by Promega (Madison, WI, USA). The luminescence was measured after 2 hours-long cells’ exposition on tested compounds and the positive control CCCP by a microplate reader EnSpire (PerkinElmer, Waltham, MA USA) at luminescence mode. All compounds were tested in triplicate.

hepatoma HepG2 cell line [2] = assay: Hepatotoxicity, MTS assay in HepG2; details: 72 h; 100 µM
Experimental: as §2

CYP3A4 = target: T1, CYP3A4 (Homo sapiens, UniProt P08684); assay: CYP3A4 P450-Glo assay; type: in vitro ADME; details: 0.01-25 μM; effect of 4 at 10 and 25 µM
T1 construct: purchased Promega (Madison, WI, USA)
From the text: (§1) The potential risk of drug-drug interactions (DDI) were examined by luminescence-based CYP3A4 and CYP2D6 P450-Glo™ assays (Promega®). These two CYP isoforms are responsible for metabolism of approximately half of all marketed drugs, and an influence on their activity may be a source of DDI danger. […] The luminescent CYP3A4 P450-Glo™ and CYP2D6 P450-Glo™ Promega® (Madison, WI, USA) were used for investigation of potential drug-drug interactions. All assays and protocols were described before.

CYP2D6 = target: T2, CYP2D6 (Homo sapiens, UniProt P10635); assay: CYP2D6 P450-Glo assay; type: in vitro ADME; details: for CYP2D6 activity (inhibition): at 25 µM
T2 construct: purchased Promega (Madison, WI, USA)
From the text: as §1

P-glycoprotein (Pgp) = P-glycoprotein (Pgp) (Homo sapiens, UniProt P08183); assay: Luminescent Pgp-Glo Assay System; details: 100 μM, 40 min, 37 °C; for Pgp basal activity: > 100% = substrate, increase statistically insignificant
Experimental: Moreover, the luminescence Pgp-Glo™ Assay was used in order to determine their influence on P-glycoprotein (Pgp) activity, the main efflux pump in the transport across blood–brain barrier (BBB) and the intestinal epithelium.
The luminescent Pgp-Glo™ Assay System used for determination of 5HT6R ligands’ influence on P-glycoprotein activity was purchased from Promega (Madison, WI, USA). […] The luminescence signal was measured by microplate reader EnSpire PerkinElmer (Waltham, MA, USA).

5-HT1A [3] = target: T3, 5-HT1A (Homo sapiens, UniProt P08908); assay: Radioligand binding assay, 5-HT1A ([3H]-8-OH-DPAT displacement); details: human receptor stably expressed in HEK-293
T3 construct: expressed in transfected cells; host or cells: HEK-293
T3 sequence (P08908 1-422): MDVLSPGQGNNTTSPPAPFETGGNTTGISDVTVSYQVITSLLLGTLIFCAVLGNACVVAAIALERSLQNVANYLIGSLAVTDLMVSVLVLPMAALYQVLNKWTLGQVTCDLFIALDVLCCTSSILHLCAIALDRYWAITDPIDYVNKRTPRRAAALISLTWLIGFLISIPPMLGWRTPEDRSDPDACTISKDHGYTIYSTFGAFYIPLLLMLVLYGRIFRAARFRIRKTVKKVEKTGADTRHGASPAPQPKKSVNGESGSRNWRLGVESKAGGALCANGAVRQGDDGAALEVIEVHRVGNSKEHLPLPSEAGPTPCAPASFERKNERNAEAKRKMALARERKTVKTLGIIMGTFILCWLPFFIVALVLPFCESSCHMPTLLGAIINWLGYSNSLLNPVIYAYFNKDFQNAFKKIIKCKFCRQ

5-HT2A = target: T4, 5-HT2A (Homo sapiens, UniProt P28223); assay: Radioligand binding assay, 5-HT2A ([3H]-ketanserin displacement); details: human receptor stably expressed in HEK-293
T4 construct: expressed in transfected cells; host or cells: HEK-293

[4] = Parallel artificial membrane permeability assay (PAMPA); type: in vitro ADME; details: PBS pH 7.4, 5 h, room temperature, breakpoint for permeable compounds Pe ≥ 1.5 × 10^−6 cm/s, read-out: Pe (permeability coefficient) ± SD
D2L [5] = target: T5, D2L (Homo sapiens, UniProt P14416); assay: Radioligand binding assay, D2L ([3H]-raclopride displacement); details: human receptor stably expressed in HEK-293
T5 construct: expressed in transfected cells; host or cells: HEK-293

[6] = Metabolic stability in human liver microsomes (HLMs); details: for Clint: HLMs 1 mg/mL, 50 µM compound, Clint ≤ 8.6 = low clearance; for half-life at 50 µM: human, human liver microsomes
Experimental: The t1/2 values and intrinsic clearances (Clint) were calculated using IS by protocols and formulas proposed by Obach [30].

5-HT7 [7] = target: T6, 5-HT7 (Homo sapiens, UniProt P34969); assay: Radioligand binding assay, 5-HT7 ([3H]-5-CT displacement); details: human receptor stably expressed in HEK-293
T6 construct: expressed in transfected cells; host or cells: HEK-293

[8] = Vogel conflict drinking test; details: rats
Experimental: It was consisted of polycarbonate cages (dimensions 26.5 cm × 15 cm × 42 cm), equipped with a grid floor made from stainless steel bars and drinking bottles containing tap water. Experimental chambers were connected to PC software by control chassis and electric shocks’ generator. On the first day of the experiment, the rats were adapted to the test chambers and drink water from the bottle spout for 10 min. Afterwards, the rats were returned to their home cages and were given 30 min free access to water followed by a 24-h water deprivation period. The adaptation session and water deprivation protocols were repeated on the second day of the experiment. On the third day the rats were placed again in the test chambers 60 min after investigated and reference compounds administration and were given free access to the drinking tube. Recording data started immediately after the first lick and rats were punished with an electric shock (0.5 mA, lasting 1 s) delivered to the metal drinking tube every 20 licks. The number of licks and the number of shocks received during a 5-min experimental session were recorded automatically.

5-HT7 [9] = target: T6, 5-HT7; set-up: method as in PMID 28441580, PMID 30530073, PMID 31229876; details: human receptor stably expressed in HEK-293; determined previously; read-out: Ki 5-HT7 [3H]-5-CT; cited from earlier work
5-HT1A [10] = target: T3, 5-HT1A; set-up: method as in PMID 28441580, PMID 30530073, PMID 31229876; details: human receptor stably expressed in HEK-293; determined previously; read-out: Ki 5-HT1A [3H]-8-OH-DPAT; cited from earlier work
D2L [11] = target: T5, D2L; set-up: method as in PMID 28441580, PMID 30530073, PMID 31229876; details: human receptor stably expressed in HEK-293; determined previously; read-out: Ki D2L [3H]-Raclopride; cited from earlier work
hepatoma HepG2 cell line [12] = assay: ATP level in HepG2 (CellTiter-Glo); details: 2 h exposure, 10 µM
Experimental: as §2

[13] = Novel object recognition test (NORT), scopolamine-induced memory impairment; type: in vivo, rat; details: rats, 1 mg/kg; ANOVA NS
From the text: Taking into account the ability of various 5-HT6R antagonists to improve cognitive deficits, the NORT assay was used to study the influence of the investigated compounds on visual episodic memory. This test is based on the spontaneous exploration of novel and familiar objects. The administration of scopolamine reduces an ability to discriminate a novel object from a familiar one, and any compounds that have a protective effect against this deficit are regarded as potentially useful for treating cognitive deficits that are characteristic for Alzheimer’s disease and other dementia connected disorders.
Five days before the experiment, the rats were transferred to the laboratory, labeled and, thereafter, left to acclimate to the new environment. The animals were handling every five days before experiments to minimize the stress reaction. The protocol was adapted from the original work. The test session comprising of two trials separated by an inter-trial interval (ITI) of 1 h was carried out on the next day. […]
The animals explored the objects by looking, licking, sniffing or touching the object but not when leaning against, standing or sitting on the object. […] Exploration time of the objects was measured by blind experimenter. Based on exploration time (E) of two objects during T2, discrimination index (DI) was calculated according to the formula: DI = (EB − EA)/(EA + […]). […]

[14] = 72 h, only at 100 µM, 1 p < 0.001, 2 p < 0.05

Sequence of P-glycoprotein (Pgp) (P08183 whole entry): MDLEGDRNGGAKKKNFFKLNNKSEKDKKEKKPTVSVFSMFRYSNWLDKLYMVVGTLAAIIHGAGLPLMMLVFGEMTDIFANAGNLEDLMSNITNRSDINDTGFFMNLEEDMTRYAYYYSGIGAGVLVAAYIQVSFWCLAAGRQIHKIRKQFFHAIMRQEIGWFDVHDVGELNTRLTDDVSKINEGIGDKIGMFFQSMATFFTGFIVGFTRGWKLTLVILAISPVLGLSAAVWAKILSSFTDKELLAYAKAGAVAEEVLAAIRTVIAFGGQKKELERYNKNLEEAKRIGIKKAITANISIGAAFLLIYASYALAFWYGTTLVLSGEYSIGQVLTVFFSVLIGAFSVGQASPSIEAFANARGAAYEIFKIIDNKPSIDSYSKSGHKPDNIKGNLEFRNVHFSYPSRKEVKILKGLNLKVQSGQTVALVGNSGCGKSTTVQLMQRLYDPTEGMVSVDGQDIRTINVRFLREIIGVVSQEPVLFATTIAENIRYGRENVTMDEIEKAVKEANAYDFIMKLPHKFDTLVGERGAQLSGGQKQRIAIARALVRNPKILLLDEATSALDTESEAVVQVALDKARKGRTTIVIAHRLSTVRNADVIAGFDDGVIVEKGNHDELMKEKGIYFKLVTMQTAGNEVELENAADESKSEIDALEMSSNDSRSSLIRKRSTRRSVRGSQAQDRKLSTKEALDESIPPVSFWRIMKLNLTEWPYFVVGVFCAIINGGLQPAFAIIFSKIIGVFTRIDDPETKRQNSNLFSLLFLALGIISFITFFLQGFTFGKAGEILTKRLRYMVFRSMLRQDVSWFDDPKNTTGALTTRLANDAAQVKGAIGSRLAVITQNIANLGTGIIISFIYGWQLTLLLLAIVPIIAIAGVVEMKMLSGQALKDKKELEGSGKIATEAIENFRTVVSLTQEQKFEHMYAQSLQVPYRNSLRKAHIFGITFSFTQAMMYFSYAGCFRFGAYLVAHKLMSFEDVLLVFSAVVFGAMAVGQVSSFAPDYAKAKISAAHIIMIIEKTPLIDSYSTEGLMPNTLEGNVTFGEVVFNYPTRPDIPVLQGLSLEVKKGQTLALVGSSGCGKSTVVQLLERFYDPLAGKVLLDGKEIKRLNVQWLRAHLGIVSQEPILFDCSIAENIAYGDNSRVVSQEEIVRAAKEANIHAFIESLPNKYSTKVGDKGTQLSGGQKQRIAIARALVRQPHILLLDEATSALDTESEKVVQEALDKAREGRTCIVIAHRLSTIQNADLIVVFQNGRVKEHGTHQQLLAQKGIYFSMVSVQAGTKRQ
T6 sequence (P34969 1-432): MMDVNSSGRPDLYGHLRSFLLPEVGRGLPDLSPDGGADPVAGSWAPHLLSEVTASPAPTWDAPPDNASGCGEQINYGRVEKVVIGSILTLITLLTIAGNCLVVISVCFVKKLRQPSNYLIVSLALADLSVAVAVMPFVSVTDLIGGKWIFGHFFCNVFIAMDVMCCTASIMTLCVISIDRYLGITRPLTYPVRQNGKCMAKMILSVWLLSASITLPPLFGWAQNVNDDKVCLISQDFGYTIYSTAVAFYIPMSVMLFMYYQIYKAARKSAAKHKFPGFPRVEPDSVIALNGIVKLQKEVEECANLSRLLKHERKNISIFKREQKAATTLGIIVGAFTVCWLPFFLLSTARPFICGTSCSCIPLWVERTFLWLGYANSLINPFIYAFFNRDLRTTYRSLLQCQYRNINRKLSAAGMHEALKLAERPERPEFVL
T2 sequence (P10635 whole entry): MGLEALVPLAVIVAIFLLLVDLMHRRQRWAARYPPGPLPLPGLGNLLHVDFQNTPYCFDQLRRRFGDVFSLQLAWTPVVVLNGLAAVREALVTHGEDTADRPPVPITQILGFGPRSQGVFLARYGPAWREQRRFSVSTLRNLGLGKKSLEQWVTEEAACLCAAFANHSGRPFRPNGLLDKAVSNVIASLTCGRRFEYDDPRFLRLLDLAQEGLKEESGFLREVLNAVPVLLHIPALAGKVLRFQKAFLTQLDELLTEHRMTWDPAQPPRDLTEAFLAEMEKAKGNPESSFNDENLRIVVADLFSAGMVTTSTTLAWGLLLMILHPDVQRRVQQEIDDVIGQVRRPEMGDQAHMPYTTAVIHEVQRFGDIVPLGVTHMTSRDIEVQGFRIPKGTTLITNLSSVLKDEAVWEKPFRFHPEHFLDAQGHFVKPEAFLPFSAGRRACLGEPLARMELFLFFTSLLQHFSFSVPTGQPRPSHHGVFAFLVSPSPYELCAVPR
T5 sequence (P14416 whole entry): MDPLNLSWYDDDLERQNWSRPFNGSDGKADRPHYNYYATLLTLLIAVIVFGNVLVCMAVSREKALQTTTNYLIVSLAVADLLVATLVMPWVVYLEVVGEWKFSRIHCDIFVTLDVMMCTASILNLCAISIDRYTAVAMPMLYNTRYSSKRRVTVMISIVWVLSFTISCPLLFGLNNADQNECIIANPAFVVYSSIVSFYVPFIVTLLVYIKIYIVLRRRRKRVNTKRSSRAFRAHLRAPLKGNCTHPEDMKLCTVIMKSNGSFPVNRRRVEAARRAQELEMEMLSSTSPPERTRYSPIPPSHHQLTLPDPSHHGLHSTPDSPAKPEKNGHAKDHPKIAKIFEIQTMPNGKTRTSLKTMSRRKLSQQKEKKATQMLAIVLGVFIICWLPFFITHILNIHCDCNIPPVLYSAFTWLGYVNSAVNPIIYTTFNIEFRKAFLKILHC
T4 sequence (P28223 whole entry): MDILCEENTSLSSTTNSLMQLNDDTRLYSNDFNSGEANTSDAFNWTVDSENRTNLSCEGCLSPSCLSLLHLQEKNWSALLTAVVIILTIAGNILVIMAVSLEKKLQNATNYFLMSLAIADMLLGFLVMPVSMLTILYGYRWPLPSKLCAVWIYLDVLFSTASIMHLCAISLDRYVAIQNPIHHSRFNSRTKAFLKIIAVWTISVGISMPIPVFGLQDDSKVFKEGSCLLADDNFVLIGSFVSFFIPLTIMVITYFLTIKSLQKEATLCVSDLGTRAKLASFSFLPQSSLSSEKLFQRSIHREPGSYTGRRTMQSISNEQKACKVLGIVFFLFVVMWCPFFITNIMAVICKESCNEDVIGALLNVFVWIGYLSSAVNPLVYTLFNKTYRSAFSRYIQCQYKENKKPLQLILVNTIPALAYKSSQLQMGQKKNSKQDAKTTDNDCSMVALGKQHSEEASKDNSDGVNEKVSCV
T1 sequence (P08684 whole entry): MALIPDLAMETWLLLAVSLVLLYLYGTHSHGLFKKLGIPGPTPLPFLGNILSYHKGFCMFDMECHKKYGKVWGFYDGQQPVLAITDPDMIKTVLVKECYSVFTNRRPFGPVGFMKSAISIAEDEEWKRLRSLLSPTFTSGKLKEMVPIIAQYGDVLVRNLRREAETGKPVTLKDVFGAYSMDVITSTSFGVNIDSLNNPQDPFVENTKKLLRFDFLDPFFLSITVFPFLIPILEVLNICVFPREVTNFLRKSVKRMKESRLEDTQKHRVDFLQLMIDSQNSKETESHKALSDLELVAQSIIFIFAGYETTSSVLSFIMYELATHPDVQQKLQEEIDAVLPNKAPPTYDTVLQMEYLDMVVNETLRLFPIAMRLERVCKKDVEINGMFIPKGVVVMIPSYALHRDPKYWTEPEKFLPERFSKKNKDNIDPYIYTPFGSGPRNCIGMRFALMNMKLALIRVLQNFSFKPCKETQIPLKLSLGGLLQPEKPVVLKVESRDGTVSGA

SMILES	Ki (5-HT6) [µM]	Pgp basal activity (P-glycoprotein (Pgp))	Ki (5-HT2A) [µM]	Papp at 5 h, 200 µM [4] [nm/s]	Clint [6] [L/h/kg]	half-life at 50 µM [6] [h]	anxiolytic-like activity in Vogel conflict drinking test ([8]; i.p. 60 min before test)	also measured
Cc1ccc(C(C)C)c(OCc2nc(N)nc(N3CCN(C)CC3)n2)c1 [Compound 4, 4-((2-isopropyl-5-methylphenoxy)methyl)-6-(4-methylpiperazin-1-yl)-1,3,5-triazin-2-amine]	0.011	~ 135%	0.43	123 ± 19.8	0.378	1.65	anxiolytic-like activity was shown	lowest toxic dose vs 5-HT6R Ki ([1]; 10 μM vs Ki = 11 nM): ~ 1000 fold; HEK-293 cells viability ([1]; 72 h, at 10 and 100 µM, p < 0.001): statistically significant decrease in cells viability; lowest toxic dose ([1]; cytotoxicity, 72 h): 10 µM; HepG2 viability (hepatotoxic effect) (hepatoma HepG2 cell line [2]): hepatotoxic effect; influence on CYP3A4 activity (CYP3A4): slight induction effect; CYP2D6 activity (inhibition) (CYP2D6): ~ 75 % of the control activity; Ki (5-HT1A [3]): 12.5 µM; Ki (D2L [5]): 1.09 µM; Ki (5-HT7 [7]): 12 µM; increase of the number of licks ([8]; 0.3 mg/kg i.p., p < 0.0001): about 76%
CN1CCN(c2nc(N)nc(Cc3cccc(Cl)c3)n2)CC1 [Compound 1]	0.028	~ 135%	0.272	236 ± 21.4	0.454	1.38		HEK-293 cells viability [1, 14]: significant effect; Ki (5-HT7 [9]): 8.71 µM; Ki (5-HT1A [10]): 4.95 µM; Ki (D2L [11]): 0.838 µM
CN1CCN(c2nc(N)nc(Cc3c[nH]c4ccccc34)n2)CC1 [Compound 3, 4-((1H-indol-3-yl)methyl)-6-(4-methylpiperazin-1-yl)-1,3,5-triazin-2-amine]	0.022	~ 135%	1.76	179 ± 57.6	0.14	4.45	anxiolytic-like activity was shown	CYP2D6 activity (inhibition) (CYP2D6): ~ 75 % of the control activity; increase of the number of shocks ([8]; 1 mg/kg i.p., p < 0.05): about 82%
COc1ccc(S(=O)(=O)Nc2cc(Cl)cc(Cl)c2OC)cc1N1CCNCC1 [SB-399885, N-[3,5-dichloro-2-(methoxy)-phenyl]-4-(methoxy)-1-(piperazinyl)benzenesulfonamide, reference compound]							anxiolytic-like activity was shown	anxiolytic-like activity in Vogel conflict drinking test ([8]; 1 and 3 mg/kg i.p.): exerted anxiolytic-like activity
Cc1cccc(Cc2nc(N)nc(N3CCN(C)CC3)n2)c1 [Compound 2]			0.329	199 ± 26.8	0.238	2.63		HEK-293 cells viability [1, 14]: significant effect; CYP2D6 activity (induction) (CYP2D6; at 10 and 25 µM): ~ 148 % of the control activity; effect on Pgp basal activity (P-glycoprotein (Pgp); p < 0.001): inhibited significantly; Ki (5-HT7 [9]): 16.2 µM; Ki (5-HT1A [10]): 10.2 µM; Ki (D2L [11]): 1.19 µM
N#CC(C#N)=NNc1cccc(Cl)c1 [CCCP, carbonyl cyanide 3-chlorophenylhydrazone]								ATP level in HepG2 (hepatoma HepG2 cell line [12]): ~ 33 % of control
CCN(C)C(=O)Oc1cccc([C@H](C)N(C)C)c1 [rivastigmine]								effect on scopolamine induced learning deficits in NORT [13]: similar, but lower pro-cognitive effects
